The source of these data is patent US8722656B2, “Cephalosporins useful as antibacterial agents” (Zoetis LLC, priority 2011, dated 2014).

Assay [1] has as its system E. coli 25922. The experiment in a line: Dilution antimicrobial susceptibility test (M07-A8), E. coli. The following applies: for MIC: Escherichia coli, antibacterial activity by dilution susceptibility test, isolate 25922; for E. coli/P. multocida: selectivity for P. multocida over E. coli (ratio of the two values). In kind it is cell-based, Escherichia coli. The method, then:
(§1) Compounds of the present invention were tested against an assortment of Gram-negative and Gram-positive organisms using the industrial standard techniques described in Methods for Dilution Antimicrobial Susceptibility Tests for Bacteria That grow Aerobically; Approved Standard-Eighth Edition, […]-A8, Vol. 29 No. 2 Replaces […]-A7 Vol. 26 No. 2. […] When comparing the activity against these isolates with that of the marketed human health drug of cefepime (screened in the same panel), the exemplified compounds of the present invention show >200 times more selectivity over E. coli.

Assay [2] deals with M. haemo 43411. The experiment in a line: Dilution antimicrobial susceptibility test (M07-A8), M. haemolytica. In kind it is cell-based. The following applies: Mannheimia haemolytica; antibacterial activity by dilution susceptibility test, isolate 43411. The method, then:
as §1

For assay [3], the system named is P. multo 43719. Briefly: Dilution antimicrobial susceptibility test (M07-A8), P. multocida. In kind it is cell-based. The conditions noted are these: Pasteurella multocida; antibacterial activity by dilution susceptibility test, isolate 43719. The procedure: as §1

In brackets after ≈: the same amount, converted by molar mass.

For `CO/N=C(\C(=O)N[C@@H]1C(=O)N2C(C(=O)O)=C(Cc3cc(NS(C)(=O)=O)cc(OC)c3)CS[C@H]12)c1csc(N)n1` [Example 18, (6R,7R)-7-{[(2Z)-2-(2-amino-1,3-thiazol-4-yl)-2-(methoxyimino)acetyl]amino}-3-{3-methoxy-5-[(methylsulfonyl)amino]benzyl}-8-oxo-5-thia-1-azabicyclo[4.2.0]oct-2-ene-2-carboxylic acid], the figures for the MIC in assay [1], in assay [2] and in assay [3] were 16 µg/mL (≈ 26.8 µM), 0.08 µg/mL (≈ 0.134 µM) and 0.06 µg/mL (≈ 0.101 µM), respectively. Also, the “E. coli/P. multocida” value in assay [1] came out at 266.
Taken in the same sequence, the figures for `CO/N=C(\C(=O)N[C@@H]1C(=O)N2C(C(=O)O)=C(Cc3cc(C)cc(NS(C)(=O)=O)c3)CS[C@H]12)c1csc(N)n1` [Example 19, (6R,7R)-7-{[(2Z)-2-(2-amino-1,3-thiazol-4-yl)-2-(methoxyimino)acetyl]amino}-3-{3-methyl-5-[(methylsulfonyl)amino]benzyl}-8-oxo-5-thia-1-azabicyclo[4.2.0]oct-2-ene-2-carboxylic acid] were 8 µg/mL (≈ 13.8 µM), 8 µg/mL (≈ 13.8 µM), 0.008 µg/mL (≈ 0.0138 µM) and 1000.
The like results for `CO/N=C(\C(=O)N[C@@H]1C(=O)N2C(C(=O)O)=C(Cc3cc(S(=O)(=O)NCCSC(C)=O)ccc3C)CS[C@H]12)c1csc(N)n1` [Example 20, (6R,7R)-3-(5-{[2-(acetylsulfanyl)ethyl]sulfamoyl}-2-methylbenzyl)-7-{[(2Z)-2-(2-amino-1,3-thiazol-4-yl)-2-(methoxyimino)acetyl]amino}-8-oxo-5-thia-1-azabicyclo[4.2.0]oct-2-ene-2-carboxyl is acid] were, in that order, 64 µg/mL (≈ 95.7 µM), 0.25 µg/mL (≈ 0.374 µM), 0.25 µg/mL (≈ 0.374 µM) and 256.
For the molecule `CCN(CCSC(C)=O)S(=O)(=O)c1cccc(CC2=C(C(=O)O)N3C(=O)[C@@H](NC(=O)/C(=N\OC)c4csc(N)n4)[C@H]3SC2)c1` [Example 21, (6R,7R)-3-(3-{[2-(acetylsulfanyl)ethyl](ethyl)sulfamoyl}benzyl)-7-{[(2Z)-2-(2-amino-1,3-thiazol-4-yl)-2-(methoxyimino)acetyl]amino}-8-oxo-5-thia-1-azabicyclo[4.2.0]oct-2-ene-2-carboxylic acid], the minimum inhibitory concentration (MIC) (as a rule, the smallest concentration in the dilution series that meets the test's criterion for growth inhibition) in assay [1] was 32 µg/mL (≈ 46.9 µM); in assay [2], 0.125 µg/mL (≈ 0.183 µM); in assay [3], 0.03 µg/mL (≈ 0.0439 µM). In addition, the “E. coli/P. multocida” value in assay [1] came to 1066.
In the case of `CNS(=O)(=O)c1ccc(OC)c(CC2=C(C(=O)O)N3C(=O)[C@@H](NC(=O)/C(=N\OC)c4csc(N)n4)[C@H]3SC2)c1` [Example 22, (6R,7R)-7-{[(2Z)-2-(2-amino-1,3-thiazol-4-yl)-2-(methoxyimino)acetyl]amino}-3-[2-methoxy-5-(methylsulfamoyl)benzyl]-8-oxo-5-thia-1-azabicyclo[4.2.0]oct-2-ene-2-carboxylic acid], the minimum inhibitory concentration (MIC) in assay [1] came out at 64 µg/mL (≈ 107 µM); in assay [2], 0.125 µg/mL (≈ 0.209 µM); in assay [3], 0.25 µg/mL (≈ 0.419 µM). Besides, in assay [1], the “E. coli/P. multocida” value worked out at 256.
Turning to `CNS(=O)(=O)c1cccc(CC2=C(C(=O)O)N3C(=O)[C@@H](NC(=O)/C(=N\OC)c4csc(N)n4)[C@H]3SC2)c1` [Example 23, (6R,7R)-7-{[(2Z)-2-(2-amino-1,3-thiazol-4-yl)-2-(methoxyimino)acetyl]amino}-3-[3-(methylsulfamoyl)benzyl]-8-oxo-5-thia-1-azabicyclo[4.2.0]oct-2-ene-2-carboxylic acid], the MIC was 16 µg/mL (≈ 28.2 µM) in assay [1], 0.06 µg/mL (≈ 0.106 µM) in assay [2] and 0.125 µg/mL (≈ 0.221 µM) in assay [3]. In addition, in assay [1], the “E. coli/P. multocida” value is on record as 128.
In the case of `CNS(=O)(=O)c1ccc(C)c(CC2=C(C(=O)O)N3C(=O)[C@@H](NC(=O)/C(=N\OC)c4csc(N)n4)[C@H]3SC2)c1` [Example 24, (6R,7R)-7-{[(2Z)-2-(2-amino-1,3-thiazol-4-yl)-2-(methoxyimino)acetyl]amino}-3-[2-methyl-5-(methylsulfamoyl)benzyl]-8-oxo-5-thia-1-azabicyclo[4.2.0]oct-2-ene-2-carboxylic acid], the MIC in assay [1] amounted to 4 µg/mL (≈ 6.89 µM); in assay [2], 0.008 µg/mL (≈ 0.0138 µM); in assay [3], 0.015 µg/mL (≈ 0.0258 µM). In addition, the “E. coli/P. multocida” value in assay [1] was found to be 266.
On to `CO/N=C(\C(=O)N[C@@H]1C(=O)N2C(C(=O)O)=C(Cc3cccc(S(=O)(=O)N(C)C)c3)CS[C@H]12)c1csc(N)n1` [Example 25, (6R,7R)-7-{[(2Z)-2-(2-amino-1,3-thiazol-4-yl)-2-(methoxyimino)acetyl]amino}-3-[3-(dimethylsulfamoyl)benzyl]-8-oxo-5-thia-1-azabicyclo[4.2.0]oct-2-ene-2-carboxylic acid], for which the MIC in assay [1] is 8 µg/mL (≈ 13.8 µM); in assay [2], 0.008 µg/mL (≈ 0.0138 µM); in assay [3], 0.008 µg/mL (≈ 0.0138 µM). For the same molecule, the “E. coli/P. multocida” value in assay [1] is 1000.
Turning to `CNS(=O)(=O)c1cc(CC2=C(C(=O)O)N3C(=O)[C@@H](NC(=O)/C(=N\OC)c4csc(N)n4)[C@H]3SC2)cc(OC)c1` [Example 26, (6R,7R)-7-{[(2Z)-2-(2-amino-1,3-thiazol-4-yl)-2-(methoxyimino)acetyl]amino}-3-[3-methoxy-5-(methylsulfamoyl)benzyl]-8-oxo-5-thia-1-azabicyclo[4.2.0]oct-2-ene-2-carboxylic acid], the MIC in assay [1] is 4 µg/mL (≈ 6.7 µM); in assay [2] it was 0.008 µg/mL (≈ 0.0134 µM); in assay [3], 0.015 µg/mL (≈ 0.0251 µM). Further, in assay [1], the “E. coli/P. multocida” value is 266.
As for `CNS(=O)(=O)c1cc(C)cc(CC2=C(C(=O)O)N3C(=O)[C@@H](NC(=O)/C(=N\OC)c4csc(N)n4)[C@H]3SC2)c1` [Example 27, (6R,7R)-7-{[(2Z)-2-(2-amino-1,3-thiazol-4-yl)-2-(methoxyimino)acetyl]amino}-3-[3-methyl-5-(methylsulfamoyl)benzyl]-8-oxo-5-thia-1-azabicyclo[4.2.0]oct-2-ene-2-carboxylic acid], the MIC in assay [1] is 8 µg/mL (≈ 13.8 µM); in assay [2] it was 0.008 µg/mL (≈ 0.0138 µM); in assay [3] it was 0.015 µg/mL (≈ 0.0258 µM). In addition, the “E. coli/P. multocida” value in assay [1] was found to be 533.
With `CO/N=C(\C(=O)N[C@@H]1C(=O)N2C(C(=O)O)=C(Cc3ccc(S(C)(=O)=O)cc3C)CS[C@H]12)c1csc(N)n1` [Example 28, (6R,7R)-7-{[(2Z)-2-(2-amino-1,3-thiazol-4-yl)-2-(methoxyimino)acetyl]amino}-3-[2-methyl-4-(methylsulfonyl)benzyl]-8-oxo-5-thia-1-azabicyclo[4.2.0]oct-2-ene-2-carboxylic acid], the MIC was found to be 4 µg/mL (≈ 7.07 µM) in assay [1], 0.06 µg/mL (≈ 0.106 µM) in assay [2] and 0.03 µg/mL (≈ 0.053 µM) in assay [3]. Besides, the “E. coli/P. multocida” value in assay [1] is listed as 133.
